Data taken from patent publication US20250206727A1, “HETEROCYCLIC SUBSTITUTED AROMATIC COMPOUND, PREPARATION METHOD THEREFOR, HERBICIDAL COMPOSITION AND APPLICATION” (QINGDAO KINGAGROOT CHEMICAL COMPOUND CO., LTD., priority 2022, published 2025).

Columns and labels:
Assay in all cases: Post-emergence test on weeds (greenhouse, spray at 2-3 leaf stage)
Format in all cases: in vivo
Design in all cases: key: Level 10: completely dead; Level 9: growth control rate greater than or equal to 90% and less than 100%; Level 8: growth control rate greater than or equal to 80% and less than 90%; Level 7: growth control rate greater than or equal to 70% and less than 80%; Level 6: growth control rate greater than or equal to 60% and less than 70%; Level 5: growth control rate greater than or equal to 50% and less than 60%; Level 4: growth control rate greater than or equal to 40% and less than 50%; Level 3: growth control rate greater than or equal to 30% and less than 40%; Level 2: growth control rate greater than or equal to 20% and less than 30%; Level 1: growth control rate less than 20%; Level 0: no effect
Conditions in all cases: 3 weeks after application
Amaranthus retroflexus = system: Amaranthus retroflexus
Outline: (§1)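 Pot-grown plants were spray-tower treated two weeks after sowing with compound in acetone/Tween 80 plus 1.5 L/ha methyl oleate EC, at rates from 500 to 7.5 g a.i./ha. Fresh-weight growth control was scored 0–10 after 3 weeks in the greenhouse, averaged over triplicates.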

Veronica polita = system: Veronica polita
Outline: as §1

Echinochloa crus-galli = system: Echinochloa crus-galli
Outline: as §1

Digitaria sanguinalis = system: Digitaria sanguinalis
Outline: as §1

Setaria viridis = system: Setaria viridis
Outline: as §1

Abutilon theophrasti = system: Abutilon theophrasti
Outline: as §1

CCOC(=O)C1(C)ON=C(c2cc(-c3ncc(C(F)(F)F)cc3F)c(F)cc2Cl)O1 (stereo not drawn) [Compound 34]
10: activity level (fresh weight growth control rate), Amaranthus retroflexus (Amaranthus retroflexus; 60 g a.i./ha) | activity level (fresh weight growth control rate), Veronica polita (Veronica polita; 60 g a.i./ha) | activity level (fresh weight growth control rate), Echinochloa crus-galli (Echinochloa crus-galli; 60 g a.i./ha) | activity level (fresh weight growth control rate), Digitaria sanguinalis (Digitaria sanguinalis; 60 g a.i./ha) | activity level (fresh weight growth control rate), Setaria viridis (Setaria viridis; 60 g a.i./ha) | activity level (fresh weight growth control rate), Abutilon theophrasti (Abutilon theophrasti; 60 g a.i./ha)

CCOC(=O)C1(C)ON=C(c2cc(-c3ncc(F)cc3Cl)c(F)cc2Cl)O1 (stereo not drawn) [Compound 35]
10: activity level (fresh weight growth control rate), Amaranthus retroflexus (Amaranthus retroflexus; 60 g a.i./ha) | activity level (fresh weight growth control rate), Veronica polita (Veronica polita; 60 g a.i./ha) | activity level (fresh weight growth control rate), Echinochloa crus-galli (Echinochloa crus-galli; 60 g a.i./ha) | activity level (fresh weight growth control rate), Digitaria sanguinalis (Digitaria sanguinalis; 60 g a.i./ha) | activity level (fresh weight growth control rate), Setaria viridis (Setaria viridis; 60 g a.i./ha) | activity level (fresh weight growth control rate), Abutilon theophrasti (Abutilon theophrasti; 60 g a.i./ha)

CCOC(=O)C1(C)ON=C(c2cc(-c3ncc(C(F)(F)F)cc3Cl)c(F)cc2Cl)O1 (stereo not drawn) [Compound 39]
10: activity level (fresh weight growth control rate), Amaranthus retroflexus (Amaranthus retroflexus; 15 g a.i./ha) | activity level (fresh weight growth control rate), Veronica polita (Veronica polita; 15 g a.i./ha) | activity level (fresh weight growth control rate), Echinochloa crus-galli (Echinochloa crus-galli; 15 g a.i./ha) | activity level (fresh weight growth control rate), Digitaria sanguinalis (Digitaria sanguinalis; 15 g a.i./ha) | activity level (fresh weight growth control rate), Setaria viridis (Setaria viridis; 15 g a.i./ha) | activity level (fresh weight growth control rate), Abutilon theophrasti (Abutilon theophrasti; 15 g a.i./ha)

CCOC(=O)C1(C)ON=C(c2cc(-c3ncc(Cl)cc3Cl)c(F)cc2Cl)O1 (stereo not drawn) [Compound 40]
10: activity level (fresh weight growth control rate), Amaranthus retroflexus (Amaranthus retroflexus; 60 g a.i./ha) | activity level (fresh weight growth control rate), Veronica polita (Veronica polita; 60 g a.i./ha) | activity level (fresh weight growth control rate), Echinochloa crus-galli (Echinochloa crus-galli; 60 g a.i./ha) | activity level (fresh weight growth control rate), Digitaria sanguinalis (Digitaria sanguinalis; 60 g a.i./ha) | activity level (fresh weight growth control rate), Setaria viridis (Setaria viridis; 60 g a.i./ha) | activity level (fresh weight growth control rate), Abutilon theophrasti (Abutilon theophrasti; 60 g a.i./ha)

CCOC(=O)C1(C)ON=C(c2cc(-c3ncc(C(F)(F)F)cc3Cl)c(F)cc2C(F)(F)F)O1 (stereo not drawn) [Compound 54]
10: activity level (fresh weight growth control rate), Amaranthus retroflexus (Amaranthus retroflexus; 60 g a.i./ha) | activity level (fresh weight growth control rate), Veronica polita (Veronica polita; 60 g a.i./ha) | activity level (fresh weight growth control rate), Echinochloa crus-galli (Echinochloa crus-galli; 60 g a.i./ha) | activity level (fresh weight growth control rate), Digitaria sanguinalis (Digitaria sanguinalis; 60 g a.i./ha) | activity level (fresh weight growth control rate), Setaria viridis (Setaria viridis; 60 g a.i./ha) | activity level (fresh weight growth control rate), Abutilon theophrasti (Abutilon theophrasti; 60 g a.i./ha)

CCOC(=O)C1(C)ON=C(c2cc(-c3ncc(C(F)(F)F)cc3Cl)c(F)cc2C#N)O1 (stereo not drawn) [Compound 56]
10: activity level (fresh weight growth control rate), Amaranthus retroflexus (Amaranthus retroflexus; 60 g a.i./ha) | activity level (fresh weight growth control rate), Veronica polita (Veronica polita; 60 g a.i./ha) | activity level (fresh weight growth control rate), Echinochloa crus-galli (Echinochloa crus-galli; 60 g a.i./ha) | activity level (fresh weight growth control rate), Digitaria sanguinalis (Digitaria sanguinalis; 60 g a.i./ha) | activity level (fresh weight growth control rate), Setaria viridis (Setaria viridis; 60 g a.i./ha) | activity level (fresh weight growth control rate), Abutilon theophrasti (Abutilon theophrasti; 60 g a.i./ha)

CCOC(=O)C1(CC)ON=C(c2cc(-c3ncc(C(F)(F)F)cc3F)c(F)cc2Cl)O1 (stereo not drawn) [Compound 58]
10: activity level (fresh weight growth control rate), Amaranthus retroflexus (Amaranthus retroflexus; 60 g a.i./ha) | activity level (fresh weight growth control rate), Veronica polita (Veronica polita; 60 g a.i./ha) | activity level (fresh weight growth control rate), Echinochloa crus-galli (Echinochloa crus-galli; 60 g a.i./ha) | activity level (fresh weight growth control rate), Digitaria sanguinalis (Digitaria sanguinalis; 60 g a.i./ha) | activity level (fresh weight growth control rate), Setaria viridis (Setaria viridis; 60 g a.i./ha) | activity level (fresh weight growth control rate), Abutilon theophrasti (Abutilon theophrasti; 60 g a.i./ha)

CCOC(=O)C1(C(F)(F)F)ON=C(c2cc(-c3ncc(C(F)(F)F)cc3Cl)c(F)cc2Cl)O1 (stereo not drawn) [Compound 62]
10: activity level (fresh weight growth control rate), Amaranthus retroflexus (Amaranthus retroflexus; 60 g a.i./ha) | activity level (fresh weight growth control rate), Veronica polita (Veronica polita; 60 g a.i./ha) | activity level (fresh weight growth control rate), Echinochloa crus-galli (Echinochloa crus-galli; 60 g a.i./ha) | activity level (fresh weight growth control rate), Digitaria sanguinalis (Digitaria sanguinalis; 60 g a.i./ha) | activity level (fresh weight growth control rate), Setaria viridis (Setaria viridis; 60 g a.i./ha) | activity level (fresh weight growth control rate), Abutilon theophrasti (Abutilon theophrasti; 60 g a.i./ha)

CCOC(=O)C1(C2CC2)ON=C(c2cc(-c3ncc(C(F)(F)F)cc3Cl)c(F)cc2Cl)O1 (stereo not drawn) [Compound 79]
10: activity level (fresh weight growth control rate), Amaranthus retroflexus (Amaranthus retroflexus; 60 g a.i./ha) | activity level (fresh weight growth control rate), Veronica polita (Veronica polita; 60 g a.i./ha) | activity level (fresh weight growth control rate), Echinochloa crus-galli (Echinochloa crus-galli; 60 g a.i./ha) | activity level (fresh weight growth control rate), Digitaria sanguinalis (Digitaria sanguinalis; 60 g a.i./ha) | activity level (fresh weight growth control rate), Setaria viridis (Setaria viridis; 60 g a.i./ha) | activity level (fresh weight growth control rate), Abutilon theophrasti (Abutilon theophrasti; 60 g a.i./ha)

CCSC(=O)C1(C)ON=C(c2cc(-c3ncc(C(F)(F)F)cc3Cl)c(F)cc2Cl)O1 (stereo not drawn) [Compound 85]
10: activity level (fresh weight growth control rate), Amaranthus retroflexus (Amaranthus retroflexus; 60 g a.i./ha) | activity level (fresh weight growth control rate), Veronica polita (Veronica polita; 60 g a.i./ha) | activity level (fresh weight growth control rate), Echinochloa crus-galli (Echinochloa crus-galli; 60 g a.i./ha) | activity level (fresh weight growth control rate), Digitaria sanguinalis (Digitaria sanguinalis; 60 g a.i./ha) | activity level (fresh weight growth control rate), Setaria viridis (Setaria viridis; 60 g a.i./ha) | activity level (fresh weight growth control rate), Abutilon theophrasti (Abutilon theophrasti; 60 g a.i./ha)

CCCOC(=O)C1(C)ON=C(c2cc(-c3ncc(C(F)(F)F)cc3Cl)c(F)cc2Cl)O1 (stereo not drawn) [Compound 86]
10: activity level (fresh weight growth control rate), Amaranthus retroflexus (Amaranthus retroflexus; 60 g a.i./ha) | activity level (fresh weight growth control rate), Veronica polita (Veronica polita; 60 g a.i./ha) | activity level (fresh weight growth control rate), Echinochloa crus-galli (Echinochloa crus-galli; 60 g a.i./ha) | activity level (fresh weight growth control rate), Digitaria sanguinalis (Digitaria sanguinalis; 60 g a.i./ha) | activity level (fresh weight growth control rate), Setaria viridis (Setaria viridis; 60 g a.i./ha) | activity level (fresh weight growth control rate), Abutilon theophrasti (Abutilon theophrasti; 60 g a.i./ha)

CCCOC(=O)C1(C)ON=C(c2cc(-c3ncc(Cl)cc3Cl)c(F)cc2Cl)O1 (stereo not drawn) [Compound 87]
10: activity level (fresh weight growth control rate), Amaranthus retroflexus (Amaranthus retroflexus; 60 g a.i./ha) | activity level (fresh weight growth control rate), Veronica polita (Veronica polita; 60 g a.i./ha) | activity level (fresh weight growth control rate), Echinochloa crus-galli (Echinochloa crus-galli; 60 g a.i./ha) | activity level (fresh weight growth control rate), Digitaria sanguinalis (Digitaria sanguinalis; 60 g a.i./ha) | activity level (fresh weight growth control rate), Setaria viridis (Setaria viridis; 60 g a.i./ha) | activity level (fresh weight growth control rate), Abutilon theophrasti (Abutilon theophrasti; 60 g a.i./ha)

CC(C)OC(=O)C1(C)ON=C(c2cc(-c3ncc(C(F)(F)F)cc3Cl)c(F)cc2Cl)O1 (stereo not drawn) [Compound 88]
10: activity level (fresh weight growth control rate), Amaranthus retroflexus (Amaranthus retroflexus; 60 g a.i./ha) | activity level (fresh weight growth control rate), Veronica polita (Veronica polita; 60 g a.i./ha) | activity level (fresh weight growth control rate), Echinochloa crus-galli (Echinochloa crus-galli; 60 g a.i./ha) | activity level (fresh weight growth control rate), Digitaria sanguinalis (Digitaria sanguinalis; 60 g a.i./ha) | activity level (fresh weight growth control rate), Setaria viridis (Setaria viridis; 60 g a.i./ha) | activity level (fresh weight growth control rate), Abutilon theophrasti (Abutilon theophrasti; 60 g a.i./ha)

CCCCOC(=O)C1(C)ON=C(c2cc(-c3ncc(C(F)(F)F)cc3Cl)c(F)cc2Cl)O1 (stereo not drawn) [Compound 89]
10: activity level (fresh weight growth control rate), Amaranthus retroflexus (Amaranthus retroflexus; 60 g a.i./ha) | activity level (fresh weight growth control rate), Veronica polita (Veronica polita; 60 g a.i./ha) | activity level (fresh weight growth control rate), Echinochloa crus-galli (Echinochloa crus-galli; 60 g a.i./ha) | activity level (fresh weight growth control rate), Digitaria sanguinalis (Digitaria sanguinalis; 60 g a.i./ha) | activity level (fresh weight growth control rate), Setaria viridis (Setaria viridis; 60 g a.i./ha) | activity level (fresh weight growth control rate), Abutilon theophrasti (Abutilon theophrasti; 60 g a.i./ha)

C=CCOC(=O)C1(C)ON=C(c2cc(-c3ncc(C(F)(F)F)cc3Cl)c(F)cc2Cl)O1 (stereo not drawn) [Compound 93]
10: activity level (fresh weight growth control rate), Amaranthus retroflexus (Amaranthus retroflexus; 60 g a.i./ha) | activity level (fresh weight growth control rate), Veronica polita (Veronica polita; 60 g a.i./ha) | activity level (fresh weight growth control rate), Echinochloa crus-galli (Echinochloa crus-galli; 60 g a.i./ha) | activity level (fresh weight growth control rate), Digitaria sanguinalis (Digitaria sanguinalis; 60 g a.i./ha) | activity level (fresh weight growth control rate), Setaria viridis (Setaria viridis; 60 g a.i./ha) | activity level (fresh weight growth control rate), Abutilon theophrasti (Abutilon theophrasti; 60 g a.i./ha)

CC(C)=CCOC(=O)C1(C)ON=C(c2cc(-c3ncc(C(F)(F)F)cc3Cl)c(F)cc2Cl)O1 (stereo not drawn) [Compound 96]
10: activity level (fresh weight growth control rate), Amaranthus retroflexus (Amaranthus retroflexus; 60 g a.i./ha) | activity level (fresh weight growth control rate), Veronica polita (Veronica polita; 60 g a.i./ha) | activity level (fresh weight growth control rate), Echinochloa crus-galli (Echinochloa crus-galli; 60 g a.i./ha) | activity level (fresh weight growth control rate), Digitaria sanguinalis (Digitaria sanguinalis; 60 g a.i./ha) | activity level (fresh weight growth control rate), Setaria viridis (Setaria viridis; 60 g a.i./ha) | activity level (fresh weight growth control rate), Abutilon theophrasti (Abutilon theophrasti; 60 g a.i./ha)
